# According to patent publication US9289400B2, “D3 dopamine receptor agonists to treat dyskinesia in parkinson's disease” (priority 2010, dated 2016):
# Entries after “also recorded” stand apart in the source; their conditions may differ. Like-named read-outs stand apart in the source and are kept apart here.
# Assays:
# [1] = molecular target: T1, D3 dopamine receptor (Homo sapiens (Human), UniProt P35462); experiment: D3 receptor tolerance and SRT: GIRK response to repeated agonist application in AtT-20 cells; format: cell-based; details: AtT-20 cells expressing human D3, 100-300 nM agonist, repeated ~60 s applications
# Protocol: To determine whether a compound abolishes the D3 receptor tolerance and SRT, the D3 receptor-activated GIRK response to two consecutive treatments of the lead compound is measured. […] Drug solutions were delivered to cells via a multi-barreled micropipette array. The current responses were normalized to the cell capacitance, to account for variation in cell size.
# To identify agonists that might modulate D3 receptor tolerance and SRT properties, ten distinct agonists were screened for their ability to induce tolerance and SRT, using the D3 receptor-GIRK channel signaling pathway as an assay.
# Target sequence in this assay (P35462 other isoform, or with tags, fused parts or gaps): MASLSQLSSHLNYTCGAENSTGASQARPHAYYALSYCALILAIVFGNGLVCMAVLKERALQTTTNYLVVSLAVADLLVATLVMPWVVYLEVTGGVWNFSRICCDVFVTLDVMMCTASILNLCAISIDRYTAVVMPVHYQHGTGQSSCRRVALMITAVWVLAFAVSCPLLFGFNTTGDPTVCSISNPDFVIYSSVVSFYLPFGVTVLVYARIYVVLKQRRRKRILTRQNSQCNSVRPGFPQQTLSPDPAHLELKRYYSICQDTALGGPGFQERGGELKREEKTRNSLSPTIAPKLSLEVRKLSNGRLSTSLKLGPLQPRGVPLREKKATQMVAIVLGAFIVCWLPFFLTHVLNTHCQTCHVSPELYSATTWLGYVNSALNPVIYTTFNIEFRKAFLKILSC
# [2] = molecular target: T1, D3 dopamine receptor; experiment: GIRK channel activation, whole cell voltage clamp, AtT-20 cells stably expressing D3; format: cell-based; details: D2/D3 antagonist eticlopride (100 nM)
# Protocol: The activation of the GIRK channels was measured electrophysiologically using whole cell voltage clamp recording (Kuzhikandathil et al., 2004, Mol. Cell. Neurosci. 26:144-155). […]. The adenylyl cyclase inhibition was determined using a commercially available ELISA assay (Westrich & Kuzhikandathil, 2007, Biochim. Biophys. Acta-Mol. Cell. Res. 1773:1747-1758).
# . In the initial screen, the ability of 300 nM lead compound to activate G-protein coupled inward rectifier potassium (GIRK) channels (FIG. 1) is measured using whole cell voltage clamp recording. The protocol has been previously used for performing whole cell voltage clamp and measuring agonist-induced GIRK response. […]. The EC50 values for each receptor subtype is determined by fitting the data points using the Hill equation.
# AtT-20 mouse pituitary cells were grown in Ham's F10 medium with 5% FBS, 10% heat-inactivated horse serum, 2 mM glutamine and 50 μg/ml gentamicin (Invitrogen, Carlsbad, Calif.). AtT-20 cells stabling expressing the human D2S, D2L, D3, and D4.2 and receptor were maintained in the above F10 culture media supplemented with 500 μg/ml G418 (Invitrogen). For electrophysiological characterization, cells were plated onto glass coverslips coated with 40 μg/ml poly L-lysine (Sigma-Aldrich). […]. Physiol. 115:697-706; Kuzhikandathil et al., 1998, Mol. Cell. Neurosci. 12:390-402; Kuzhikandathil & Bartoszyk, 2006, Neuropharm. 51:873-884; Westrich & Kuzhikandathil, 2007, Biochim. Biophys. Acta-MCR 1773:1747-1758; Kuzhikandathil et al., 2004, Mol. Cell. Neurosci. 26:144-155; Westrich et al., 2010, Biochem. Pharmacol. 79:897-907).
# Agonist-activated currents were measured by the whole-cell patch clamp technique in voltage clamp and current clamp mode as described previously (Kuzhikandathil & Oxford, 2000, J. Gen. Physiol. 115:697-706; Kuzhikandathil et al., 1998, Mol. Cell. Neurosci. 12:390-402; Kuzhikandathil & Bartoszyk, 2006, Neuropharm. 51:873-884; Westrich & Kuzhikandathil, 2007, Biochim. Biophys. Acta-MCR 1773:1747-1758; Kuzhikandathil et al., 2004, Mol. Cell. Neurosci. 26:144-155; Westrich et al., 2010, Biochem. Pharmacol. 79:897-907). Drug solutions were delivered to cells via a multi-barreled micropipette array. The current responses were normalized to the cell capacitance, to account for variation in cell size.
# To compare the functional effects of the new class of D3 receptor agonists, PBZI (Table 2) and ES609 (Table 3) were tested on AtT-20 cells stably expressing human D3, D2S, D2L or D4.2. […]. The EC50 values of PBZI and ES609 for inhibiting adenylyl cyclase and activating GIRK channels were in the range of 0.2 nM to 30 nM for D3 receptors. […]. […]
# Target sequence in this assay (P35462 other isoform, or with tags, fused parts or gaps): as above
# [3] = tested on: intrastriatal 6-OHDA lesioned rats; experiment: Levodopa-induced dyskinesia (AIMs score) in intrastriatal 6-OHDA lesioned rats; format: in vivo, rat; details: PD128907 0.1 mg/kg sc; PBZI 17 mg/kg sc; hydrochloride
# Protocol: In particular, rats in which unilateral intrastriatal lesion is induced by injection of 6-OHDA (7 μg) at three different sites in the ventrolateral striatum are used. The coordinates for the three injection sites are, in mm: injection site 1: AP: +1.0; ML: −3.0; DV: −5.0; injection site 2: AP: −0.1; ML: −3.7; DV: −5.0; injection site 3: AP: −1.2; ML: −4.5; DV: −5.0. Anterior-posterior (AP) and mediolateral (ML) coordinates are from bregma. The dorso-ventral (DV) coordinates are from dura. The toothbar location is 0.
# Seven and half weeks after the lesion, chronic levodopa treatment (6 mg/kg, single dose per day given with 15 mg/kg benserazide) is initiated. Stepping test and AIMs scores are determined on day 1, 8, 10, 17 and 24 after the initiation of chronic levodopa treatment. […] AIMs are scored using a rating scale based on frequency and severity of the dyskinetic symptoms. It should be noted that the rank order of the various AIMs components in terms of frequency and severity in the rat model is: limb>orolingual=axial>>locomotor. This lesion model has been used to test the effect of PBZI on LID (Example 3).
# FIG. 13A illustrates the effect of control, PD128907 (a tolerance inducing D2/D3 agonist) and PBZI (a non tolerance inducing D3/D3 agonist) on the total AIMs score (includes locomotor, axial, limb and orolingual) over time of a day 17 (chronic L-DOPA phase) lesioned animal.
# [4] = molecular target: D4.2; details: Scheideler et al., 1997; cited from earlier work
# [5] = molecular target: T1, D3 dopamine receptor; details: cited from earlier work
# Target sequence in this assay (P35462 whole entry): as the sequence (P35462 other isoform, or with tags, fused parts or gaps) above, with S9G counted along it
# [6] = tested on: Balb/c mice; experiment: Locomotor activity (open field, TruScan) in Balb/c mice
# Protocol: Therefore, three different doses of the lead compound are administered and their effects on locomotor activity are determined. The dosage is determined based on the functional EC50 values and binding affinity of the lead compound from the cell-based assays described above. The compound is administered to Balb/c mice and locomotor activity is monitored using the TruScan Automated Behavioral Monitoring system (Coulborn Instruments).
# A total of 12 young adult, male Balb/c mice were obtained form Charles River, Inc. (Wilmington, Mass.), and housed in groups of four in standard cages. The animals were maintained on a 12 hour light/12 hour dark cycle and permitted ad lib access to food and water. Experiments were conducted during the animal's light phase. […] For PD128907, separate groups of Balb/c mice received subcutaneous injections of saline (n=4) or 0.05 or 0.4 mg/kg PD128907 (n=4, for each). Locomotion (‘distance traveled’) scores of drug-injected animals were collapsed across 10-min intervals and for comparison purposes were normalized to saline injected animals (FIG. 12A). The experiment was conducted on three separate occasions.
# [7] = molecular target: D2S (Homo sapiens (Human), UniProt P14416); details: Scheideler et al., 1997; cited from earlier work
# [8] = tested on: intrastriatal 6-OHDA lesioned rats; experiment: Forelimb stepping test in intrastriatal 6-OHDA lesioned rats; details: levodopa 2, 4 and 6 mg/kg with benserazide
# [9] = molecular target: T2, D2L dopamine receptor (Homo sapiens (Human), UniProt P14416); details: Kuzhikandathil & Bartoszyk, 2006; cited from earlier work
# [10] = molecular target: T2, D2L dopamine receptor; details: Kuzhikandathil & Bartoszyk, 2006; cited from earlier work; remark: listed apart in the source
# [11] = molecular target: T3, D4.2 dopamine receptor (Homo sapiens (Human), UniProt P21917, DEL265-296); details: Kuzhikandathil & Bartoszyk, 2006; cited from earlier work
# [12] = molecular target: T3, D4.2 dopamine receptor; details: Kuzhikandathil & Bartoszyk, 2006; cited from earlier work; remark: listed apart in the source
# [13] = molecular target: D2S dopamine receptor (Homo sapiens (Human), UniProt P14416); experiment: Tolerance and SRT at D2S dopamine receptors; format: cell-based
# Sequence of D2S dopamine receptor (P14416 other isoform, or with tags, fused parts or gaps): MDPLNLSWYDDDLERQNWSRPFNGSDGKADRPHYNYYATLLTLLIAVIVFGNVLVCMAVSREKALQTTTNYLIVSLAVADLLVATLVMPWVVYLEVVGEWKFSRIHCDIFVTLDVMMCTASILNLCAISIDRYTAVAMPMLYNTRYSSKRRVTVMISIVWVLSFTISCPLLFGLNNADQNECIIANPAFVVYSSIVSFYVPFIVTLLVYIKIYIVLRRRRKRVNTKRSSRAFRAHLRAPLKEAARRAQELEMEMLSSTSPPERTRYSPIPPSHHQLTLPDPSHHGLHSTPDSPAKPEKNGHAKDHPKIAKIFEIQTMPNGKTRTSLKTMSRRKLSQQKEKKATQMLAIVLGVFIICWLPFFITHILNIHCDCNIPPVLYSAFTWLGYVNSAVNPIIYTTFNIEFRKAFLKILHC
# T3 sequence (P21917 other isoform, or with tags, fused parts or gaps del 265-296): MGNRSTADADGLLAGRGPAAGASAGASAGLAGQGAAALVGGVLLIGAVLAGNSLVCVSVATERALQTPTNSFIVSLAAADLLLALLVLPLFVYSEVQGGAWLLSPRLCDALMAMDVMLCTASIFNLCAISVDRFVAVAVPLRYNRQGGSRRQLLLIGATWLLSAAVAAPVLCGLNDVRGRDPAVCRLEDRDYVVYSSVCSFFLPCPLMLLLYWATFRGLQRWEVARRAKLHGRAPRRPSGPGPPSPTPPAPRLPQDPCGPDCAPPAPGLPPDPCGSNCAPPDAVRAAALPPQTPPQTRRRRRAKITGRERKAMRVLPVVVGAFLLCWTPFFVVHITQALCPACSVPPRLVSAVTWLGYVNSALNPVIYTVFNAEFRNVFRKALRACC
# T2 sequence (P14416 whole entry): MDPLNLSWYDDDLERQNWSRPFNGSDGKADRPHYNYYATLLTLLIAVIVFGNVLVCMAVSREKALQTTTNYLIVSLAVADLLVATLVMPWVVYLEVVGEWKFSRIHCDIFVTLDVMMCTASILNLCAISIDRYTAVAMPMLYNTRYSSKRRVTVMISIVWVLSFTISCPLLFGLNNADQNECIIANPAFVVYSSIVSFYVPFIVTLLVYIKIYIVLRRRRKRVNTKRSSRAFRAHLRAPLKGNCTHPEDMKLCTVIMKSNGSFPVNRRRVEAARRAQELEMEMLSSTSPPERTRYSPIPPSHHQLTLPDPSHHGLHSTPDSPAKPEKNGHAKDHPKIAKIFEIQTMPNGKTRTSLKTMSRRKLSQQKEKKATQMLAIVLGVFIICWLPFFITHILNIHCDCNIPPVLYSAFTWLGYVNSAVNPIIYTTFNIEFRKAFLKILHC
# Sequence of D2S (P14416 other isoform, or with tags, fused parts or gaps): as the sequence (P14416 other isoform, or with tags, fused parts or gaps) above
compound,measurement,setting,value
"C#CC1=CCC(N(CCC)CCC)CC1 (stereo not drawn) [FAUC73, (4-ethynylcyclohex-3-enyl) dipropylamine]",D3 receptor tolerance and SRT properties (agonist-induced GIRK response),[1],abolished the tolerance property; also recorded: abolished both tolerance and SRT properties; also recorded: do not show D3 receptor tolerance and SRT
same,D3 receptor tolerance and SRT properties (agonist-induced GIRK response),[1]; listed as FAUC 73,completely abolished the receptors' tolerance and SRT properties
same,specificity of agonist effect (eticlopride pretreatment / parental cells),[2],specific for D3 receptors
"CCCN1CCO[C@@H]2c3cc(O)ccc3OC[C@H]21.Cl [PD128907, (4aR,10bR)-3,4-a,4,10b-tetrahydro-4-propyl-2H,5H-[1]benzopyrano-[4,3-b]-1,4-oxazin-9-ol hydrochloride]",D3 receptor tolerance and SRT properties (agonist-induced GIRK response),[1]; hydrochloride,elicited tolerance and SRT; also recorded: induced enhanced tolerance; also recorded: induces severe tolerance and SRT
same,D3 receptor tolerance and SRT properties (agonist-induced GIRK response),"[1]; listed as PD 128907, hydrochloride",tolerance is elicited
same,"dyskinesia induced by the compound itself, before levodopa administration",[3],in of itself induced dyskinesia; also recorded: increased AIMs score even before the levodopa was administered
same,Ki,[4],114 nM
same,Ki,"[5]; D3, Scheideler et al., 1997, read-out: Ki",0.4 nM
same,Ki,"[5]; source not stated, read-out: D3 dopamine receptor binding affinity Ki",2.3 nM
same,duration of hypoactivity post-injection,"[6]; PBZI 10 mg/kg sc, PD128907 0.4 mg/kg sc",40 min
same,duration of hypoactivity post-injection,[6]; PD128907 0.05 mg/kg sc,20 min
same,time by which locomotor activity returns to control saline levels,"[6]; post-injection, PBZI 10 mg/kg sc, PD128907 0.4 mg/kg sc",≤ 120 min
same,dose at which biphasic locomotor effect was observed,[6]; sc,≥ 0.05 mg/kg
same,locomotor response,"[6]; sc, PBZI 10 mg/kg, PD128907 0.05-0.4 mg/kg, normalized to saline, hydrochloride",induces both hypoactivity and hyperactivity; also recorded: biphasic locomotor response; also recorded: biphasic effect; also recorded: an initial hypoactivity (horizontal arrows) that is followed by hyperactivity
same,Ki,[7],202 nM
"N[C@@H](Cc1ccc(O)c(O)c1)C(=O)O [levodopa, L-3,4-dihydroxyphenylalanine]",forelimb bradykinesia (forelimb stepping test),[8],dose dependent improvement in forelimb bradykinesia
"Fc1ccc(-c2cncc(CNC[C@H]3CCc4ccccc4O3)c2)cc1 [sarizotan, 1-[(2R)-3,4-dihydro-2H-chromen-2-yl]-N-([5-(4-fluorophenyl)pyridin-3-yl]methyl)methanamine]",GIRK channel signaling pathway: agonist type,[9],partial agonist
same,adenylyl cyclase pathway: agonist type,[10],full agonist
same,GIRK channel signaling pathway: agonist type,[11],partial agonist
same,adenylyl cyclase pathway: agonist type,[12],full agonist
same,tolerance and SRT properties at D2S,[13],induces tolerance and slow response termination (SRT) properties
